Measured values published in patent US20090042993A1, “IDENTIFICATION OF NOVEL POST-TRANSLATIONAL PROTEIN MODIFICATIONS” (priority 2007, published 2009).

Key:
[1] = test system: ER membrane ATP transport; test: ATP transport into intact ER vesicles; type: biochemical, Chinese Hamster; conditions: vesicles from control and ceramide-treated cells, 5 and 10 μM solute
Source text: Intact vesicles from the endoplasmic reticulum (ER) and the Golgi apparatus were purified on a 10-34% Iodixanol (OptiPrep; Axis-Shield, Norway) continuous gradient as described (Puglielli et al., 2001, Nat. Cell Biol. 3: 905-912). The complete migration of subcellular markers in a typical gradient is shown in Costantini et al., 2006, EMBO J. 25: 1997-2006; Puglielli et al., 2001, Nat. Cell Biol. 3: 905-912. Fractions enriched in ER and Golgi markers (also called ER or Golgi vesicles herein) were separated, pooled together, and resuspended in isotonic/cryogenic buffer (0.25 M sucrose and 10 mM Tris-HCl, pH 7.4) in the presence of protease inhibitors (Roche). Latency of ER and Golgi vesicles was determined with the glucose-6-phosphatase (Clairmont et al., 1992, J. Biol. Chem. 267: 3983-3900) and the sialyl-transferase (Puglielli and Hirschberg, 1999, J. Biol. Chem. 274: 35596-35600) methods, respectively. The purity of the preparation was further confirmed by assaying the above enzymatic activities, together with transport of CMP-sialic acid. […]
Briefly, assays were performed in 100 μl final volume (isotonic/cryogenic buffer) using 25 to 50 μg of ER/Golgi vesicles protein. […] Pellets were then dissolved in 0.6 mL of NaOH 1 N; after neutralization with 0.2 mL of 4N HCl, samples were counted by scintillation spectrometry. […]

[2] = target: T1, ER membrane acetyl-CoA transport activity (Cricetulus griseus, UniProt G3H231); test: Acetyl-CoA transport assay into intact ER vesicles; type: biochemical, Chinese Hamster
T1 sequence (G3H231 1-550): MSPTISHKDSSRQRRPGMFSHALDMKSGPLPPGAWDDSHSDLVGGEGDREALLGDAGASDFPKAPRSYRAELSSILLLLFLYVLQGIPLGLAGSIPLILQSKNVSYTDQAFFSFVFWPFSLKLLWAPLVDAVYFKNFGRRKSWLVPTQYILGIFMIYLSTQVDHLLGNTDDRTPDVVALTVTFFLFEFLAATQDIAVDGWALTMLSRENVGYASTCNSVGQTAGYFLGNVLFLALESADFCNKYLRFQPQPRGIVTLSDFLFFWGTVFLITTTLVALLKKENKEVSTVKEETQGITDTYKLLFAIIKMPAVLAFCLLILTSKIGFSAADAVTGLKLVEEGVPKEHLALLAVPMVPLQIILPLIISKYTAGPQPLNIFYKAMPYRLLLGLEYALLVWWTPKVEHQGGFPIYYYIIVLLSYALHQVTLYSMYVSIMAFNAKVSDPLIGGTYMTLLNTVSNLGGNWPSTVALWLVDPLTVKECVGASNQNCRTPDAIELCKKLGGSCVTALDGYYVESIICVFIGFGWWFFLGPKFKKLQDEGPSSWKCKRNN
Experimental: Intact vesicles from the endoplasmic reticulum (ER) and the Golgi apparatus were purified on a 10-34% Iodixanol (OptiPrep; Axis-Shield, Norway) continuous gradient as described (Puglielli et al., 2001, Nat. Cell Biol. 3: 905-912). […] Fractions enriched in ER and Golgi markers (also called ER or Golgi vesicles herein) were separated, pooled together, and resuspended in isotonic/cryogenic buffer (0.25 M sucrose and 10 mM Tris-HCl, pH 7.4) in the presence of protease inhibitors (Roche). Latency of ER and Golgi vesicles was determined with the glucose-6-phosphatase (Clairmont et al., 1992, J. Biol. Chem. 267: 3983-3900) and the sialyl-transferase (Puglielli and Hirschberg, 1999, J. Biol. Chem. 274: 35596-35600) methods, respectively. The purity of the preparation was further confirmed by assaying the above enzymatic activities, together with transport of CMP-sialic acid.
Briefly, assays were performed in 100 μl final volume (isotonic/cryogenic buffer) using 25 to 50 μg of ER/Golgi vesicles protein. […] After 5 min at 30° C., reactions were stopped by lowering the temperature to 0-4° C. and by adding 100 μl of ice-cold isotonic/cryogenic buffer (described above). […] Pellets were then dissolved in 0.6 mL of NaOH 1 N; after neutralization with 0.2 mL of 4N HCl, samples were counted by scintillation spectrometry. […]
Asterisk (*) indicates statistical significance (n=3) (P<0.0005). FIG. 5(D): transport of CMP-sialic acid into ER and Golgi intact vesicles was measured as described in (A). […] FIG. 5(E): transport of ATP into ER intact vesicles obtained from control and ceramide-treated CHO cells was measured as described in FIG. 5(A). […]
Translocation was measured as described in the Materials and Methods section. […] FIG. 10(E): transport of ATP into ER intact vesicles obtained from control and ceramide-treated CHO cells was measured as described in FIG. 10(A). […]
Results are expressed as percent of control (no CoA; white bar) and are the average±S.D. Asterisk (*) indicates statistical significance. […]

increase in the Vmax of acetyl-CoA transport ([2]; ER vesicles from ceramide treated cells vs untreated): ~30% | Km of acetyl-CoA transport ([2]; ER vesicles from ceramide treated cells, Lineweaver-Burk): comparable to untreated cells
Structure (SMILES): CCCCCCCCCCCCC/C=C/[C@@H](O)[C@H](CO)NC(=O)CCCCC [ceramide, C6-ceramide]
ATP transport into ER vesicles [1]: no apparent difference
